For 27 compounds, Ki results are on record in US8815882B2, “Pyrazole aminopyrimidine derivatives as LRRK2 modulators” (Genentech, Inc., priority 2010, dated 2014).

Structures are written as SMILES.

The target in one experiment is T1, LRRK2 (Homo sapiens, UniProt Q5S007, G2019S).
T1 construct: purchased Invitrogen PV4882 (lot 567054A)
T1 sequence (Q5S007 whole entry G2019S): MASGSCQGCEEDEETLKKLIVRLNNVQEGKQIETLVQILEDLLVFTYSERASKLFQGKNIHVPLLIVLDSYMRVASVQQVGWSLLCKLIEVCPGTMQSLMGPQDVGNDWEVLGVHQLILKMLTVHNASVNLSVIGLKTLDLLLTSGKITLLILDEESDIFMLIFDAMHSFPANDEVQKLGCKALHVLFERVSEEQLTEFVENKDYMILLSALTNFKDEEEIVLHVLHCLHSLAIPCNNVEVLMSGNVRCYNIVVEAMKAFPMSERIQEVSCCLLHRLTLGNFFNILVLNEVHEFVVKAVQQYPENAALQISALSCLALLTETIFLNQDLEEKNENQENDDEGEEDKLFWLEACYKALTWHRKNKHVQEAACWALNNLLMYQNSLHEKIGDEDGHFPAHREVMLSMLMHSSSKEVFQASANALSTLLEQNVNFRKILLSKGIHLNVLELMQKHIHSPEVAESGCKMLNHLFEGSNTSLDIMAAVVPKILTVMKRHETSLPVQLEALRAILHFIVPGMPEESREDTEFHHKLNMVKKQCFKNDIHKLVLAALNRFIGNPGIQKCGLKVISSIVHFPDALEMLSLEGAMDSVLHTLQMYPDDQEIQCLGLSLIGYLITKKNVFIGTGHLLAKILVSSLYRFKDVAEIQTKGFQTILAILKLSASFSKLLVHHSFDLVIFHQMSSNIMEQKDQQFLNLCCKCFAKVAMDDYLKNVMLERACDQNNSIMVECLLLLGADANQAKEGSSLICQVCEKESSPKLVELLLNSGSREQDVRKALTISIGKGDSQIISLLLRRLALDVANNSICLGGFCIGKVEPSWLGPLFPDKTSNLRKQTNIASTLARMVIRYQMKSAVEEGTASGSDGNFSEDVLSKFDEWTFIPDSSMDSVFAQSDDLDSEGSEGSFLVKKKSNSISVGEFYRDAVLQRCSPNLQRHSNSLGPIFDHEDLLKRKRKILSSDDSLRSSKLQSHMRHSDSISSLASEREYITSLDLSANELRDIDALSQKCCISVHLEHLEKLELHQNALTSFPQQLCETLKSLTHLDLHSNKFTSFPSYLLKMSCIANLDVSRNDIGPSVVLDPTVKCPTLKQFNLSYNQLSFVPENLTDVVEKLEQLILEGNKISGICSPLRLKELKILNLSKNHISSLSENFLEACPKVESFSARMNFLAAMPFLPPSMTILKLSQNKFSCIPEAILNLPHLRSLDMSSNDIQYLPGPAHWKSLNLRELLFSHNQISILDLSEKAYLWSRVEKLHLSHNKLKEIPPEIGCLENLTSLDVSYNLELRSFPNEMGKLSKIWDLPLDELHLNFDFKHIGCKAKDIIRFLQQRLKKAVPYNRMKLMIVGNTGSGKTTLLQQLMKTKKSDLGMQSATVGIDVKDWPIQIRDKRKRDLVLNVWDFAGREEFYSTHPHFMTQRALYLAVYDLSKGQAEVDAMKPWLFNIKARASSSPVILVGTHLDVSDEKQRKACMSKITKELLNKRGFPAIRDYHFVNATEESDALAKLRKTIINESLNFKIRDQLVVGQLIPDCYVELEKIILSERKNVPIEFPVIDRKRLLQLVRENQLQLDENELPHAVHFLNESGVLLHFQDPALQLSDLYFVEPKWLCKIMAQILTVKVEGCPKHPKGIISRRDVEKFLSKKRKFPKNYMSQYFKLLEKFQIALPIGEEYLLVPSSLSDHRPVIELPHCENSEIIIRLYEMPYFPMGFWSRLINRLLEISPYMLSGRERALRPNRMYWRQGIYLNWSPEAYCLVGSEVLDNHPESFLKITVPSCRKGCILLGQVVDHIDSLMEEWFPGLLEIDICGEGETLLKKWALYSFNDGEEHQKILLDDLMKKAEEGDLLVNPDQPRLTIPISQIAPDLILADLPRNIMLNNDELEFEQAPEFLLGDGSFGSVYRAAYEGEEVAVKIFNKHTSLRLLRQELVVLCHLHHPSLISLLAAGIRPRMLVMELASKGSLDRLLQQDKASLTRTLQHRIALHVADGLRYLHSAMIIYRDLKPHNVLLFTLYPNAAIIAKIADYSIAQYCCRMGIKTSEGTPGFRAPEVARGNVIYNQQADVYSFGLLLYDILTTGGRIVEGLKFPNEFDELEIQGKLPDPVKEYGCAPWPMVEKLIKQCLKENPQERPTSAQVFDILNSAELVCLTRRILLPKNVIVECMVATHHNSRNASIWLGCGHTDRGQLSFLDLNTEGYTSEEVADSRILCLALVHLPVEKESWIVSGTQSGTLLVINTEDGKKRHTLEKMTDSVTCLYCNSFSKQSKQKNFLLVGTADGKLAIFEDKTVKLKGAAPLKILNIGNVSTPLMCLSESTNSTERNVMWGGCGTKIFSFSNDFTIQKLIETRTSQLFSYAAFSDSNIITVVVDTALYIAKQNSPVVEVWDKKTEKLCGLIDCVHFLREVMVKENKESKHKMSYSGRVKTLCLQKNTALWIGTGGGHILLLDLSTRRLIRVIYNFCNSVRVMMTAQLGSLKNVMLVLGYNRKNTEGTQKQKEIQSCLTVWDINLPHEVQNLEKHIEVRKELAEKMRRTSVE
The experiment is described as follows: In Vitro LRRK2 Assay (LabChip 3000, fluorescently-labeled peptide substrate, ATP). It is filed as biochemical. The note with it: Table 9; LRRK2 Ki (micromolar); read-out: LRRK2 Ki (KI). The method in brief:
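LRRK2, fluorescent peptide substrate (diluted to 4 μM before mixing), ATP and compound were incubated 2 h in the dark, then stopped. Phosphorylated and unphosphorylated peptide were separated by capillary electrophoresis and quantified by fluorescence. Ki was fitted with a tight-binding equation including enzyme concentration, S and Km; IC50 or percent inhibition were also reported.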
For the compound `CNc1nc(Nc2cnn(C(C)C)c2C)ncc1C#N` [Example 374, 2-(1-isopropyl-5-methyl-1H-pyrazol-4-ylamino)-4-(methylamino) pyrimidine-5-carbonitrile], the Ki was 15.8 nM. For `CCNc1nc(Nc2cnn(C3CCOCC3)c2C)ncc1C#N` [Example 371, 4-(ethylamino)-2-(5-methyl-1-(tetrahydro-2H-pyran-4-yl)-1H-pyrazol-4-ylamino) pyrimidine-5-carbonitrile], the Ki was found to be 5.2 nM. On the same count and under the same terms, the figure for `CNc1nc(Nc2cnn(-c3ccc(Cl)cc3)c2C)ncc1C#N` [Example 369, 2-(1-(4-chlorophenyl)-5-methyl-H-pyrazol-4-ylamino)-4-(methylamino) pyrimidine-5-carbonitrile] is 2.5 nM; for `CCNc1nc(Nc2cnn(CC)c2C)ncc1C#N` [Example 363, 2-(1-ethyl-5-methyl-1H-pyrazol-4-ylamino)-4-(ethylamino) pyrimidine-5-carbonitrile] it is 6 nM.

The same experiment, now with this note: Table 10; LRRK2 Ki (micromolar); read-out: LRRK2 Ki (KI).
Consider `CNc1nc(Nc2cn(C(C)(C)C#N)nc2C)ncc1Cl` [Example 417, 2-(4-(5-chloro-4-(methylamino)pyrimidin-2-ylamino)-3-methyl-1H-pyrazol-1-yl)-2-methylpropanenitrile], for which the Ki was 2.1 nM.

Regarding `CNc1nc(Nc2cnn([C@H](C)C#N)c2C)ncc1C(F)(F)F` [Example 439, (R)-2-[5-Methyl-4-(4-methylamino-5-trifluoromethyl-pyrimidin-2-ylamino)-pyrazol-1-yl]-propionitrile], the Ki is 1.6 nM. As for `COC(=O)C(C)(C)n1ncc(Nc2ncc(Cl)c(OC)n2)c1C` [Example 434, 2-[4-(5-Chloro-4-methoxy-pyrimidin-2-ylamino)-5-methyl-pyrazol-1-yl]-2-methyl-propionic acid methyl ester], the Ki turned out to be 12.2 nM. On to `CNc1nc(Nc2cn([C@H](C)C#N)nc2C)ncc1C(F)(F)F` [Example 437], for which the Ki worked out at 6.5 nM.

The experiment is the same for the next values; noted with them: read-out: LRRK2 Ki (KI), Table 7.
On to `CNc1nc(Nc2cc(C3CC3)nn2C)ncc1Cl` [Example 45, 5-Chloro-N^2-(5-cyclopropyl-2-methyl-2H-pyrazol-3-yl)-N^4-methyl-pyrimidine-2,4-diamine], for which the Ki turned out to be 13.4 nM.

Turning to `COc1nc(Nc2cn(CC(C)(C)O)nc2C)ncc1Cl` [Example 23], the Ki worked out at 27 nM. In the case of `CCNc1nc(Nc2cnn(C3CCN(CC4OCCO4)CC3)c2C)ncc1C(F)(F)F` [Example 87, N^2-[1-(1-[1,3]Dioxolan-2-ylmethyl-piperidin-4-yl)-5-methyl-1H-pyrazol-4-yl]-N^4-ethyl-5-trifluoromethyl-pyrimidine-2,4-diamine], the Ki came out at 0.8 nM.

The same experiment, now with this note: read-out: LRRK2 Ki (KI), Table 8.
For the compound `CCNc1nc(Nc2cnn(CC)c2C)ncc1Br` [Example 107, 5-bromo-N4-ethyl-N2-(1-ethyl-5-methyl-1H-pyrazol-4-yl)pyrimidine-2,4-diamine], the Ki was 0.43 nM.

For `CCNc1nc(Nc2cnn([C@H]3CCCN(C)C3)c2C)ncc1C(F)(F)F` [Example 311, N4-Ethyl-N2-[5-methyl-1-((S)-1-methyl-piperidin-3-yl)-1H-pyrazol-4-yl]-5-trifluoromethyl-pyrimidine-2,4-diamine], the Ki was found to be 1.2 nM. Same read-out and setting: the value for `CNc1nc(Nc2cn(C3CCC(OC)C3)nc2C)ncc1C(F)(F)F` (stereo not drawn) [Example 193, N2-(1-(3-methoxycyclo-pentyl)-3-methyl-1H-pyrazol-4-yl)-N4-methyl-5-(trifluoromethyl) pyrimidine-2,4-diamine] was 19 nM. Turning to `CCNc1nc(Nc2cnn(-c3ccc(C#N)cc3)c2C)ncc1C(F)(F)F` [Example 162, 4-(4-(4-(ethylamino)-5-(trifluoromethyl)pyrimidin-2-ylamino)-5-methyl-1H-pyrazol-1-yl)benzonitrile], the Ki is 0.3 nM. On the same count and under the same terms, the value for `CNc1nc(Nc2cnn(-c3ccc(S(=O)(=O)C4CC4)cc3)c2C)ncc1C(F)(F)F` [Example 167, N2-(1-(4-(cyclopropyl-sulfonyl)phenyl)-5-methyl-1H-pyrazol-4-yl)-N4-methyl-5-(trifluoromethyl) pyrimidine-2,4-diamine] was 18.8 nM.

For `CNc1nc(Nc2cn(C(C)(C)c3nnc(C)o3)nc2C)ncc1C(F)(F)F` [Example 339, N4-methyl-N2-(3-methyl-1-(2-(5-methyl-1,3,4-oxadiazol-2-yl)propan-2-yl)-1H-pyrazol-4-yl)-5-(trifluoromethyl) pyrimidine-2,4-diamine], the Ki turned out to be 11.7 nM. On the same count and under the same terms, the figure for `CCNc1nc(Nc2cn(C3CCNCC3F)nc2C)ncc1C(F)(F)F` (stereo not drawn) [Example 333, N4-Ethyl-N2-[1-(3-fluoro-piperidin-4-yl)-3-methyl-1H-pyrazol-4-yl]-5-trifluoromethyl-pyrimidine-2,4-diamine] is 0.7 nM.

As for `CCNc1nc(Nc2cn(-c3ccc(S(C)(=O)=O)cc3)nc2C)ncc1C(F)(F)F` [Example 266, N4-Ethyl-N2-[1-(4-methanesulfonyl-phenyl)-3-methyl-1H-pyrazol-4-yl]-5-trifluoromethyl-pyrimidine-2,4-diamine], the Ki is 2.1 nM.

With `CNc1nc(Nc2cn(-c3ccc(C#N)cc3)nc2C)ncc1C(F)(F)F` [Example 148, 4-(3-methyl-4-(4-(methylamino)-5-(trifluoromethyl)pyrimidin-2-ylamino)-1H-pyrazol-1-yl)benzonitrile], the Ki was found to be 0.3 nM. As for `CNc1nc(Nc2cnn(Cc3ccncn3)c2C)ncc1C(F)(F)F` [Example 323, N4-Methyl-N2-(5-methyl-1-pyrimidin-4-ylmethyl-1H-pyrazol-4-yl)-5-trifluoromethyl-pyrimidine-2,4-diamine], the inhibition constant (Ki) amounted to 2.2 nM. Still for that read-out and setting: the figure for `Cc1nc(Nc2cn(-c3ccc(S(C)(=O)=O)cc3)nc2C)ncc1Cl` [Example 173, 5-chloro-4-methyl-N-(3-methyl-1-(4-(methylsulfonyl)phenyl)-1H-pyrazol-4-yl)pyrimidin-2-amine] is 484 nM; for `CNc1nc(Nc2cn(C3C[C@@H]4CC[C@@H](C3)O4)nc2C)ncc1C(F)(F)F` (stereo partly drawn) [Example 126, N2-(1-((1S,5S)-8-oxabicyclo[3.2.1]octan-3-yl)-3-methyl-1H-pyrazol-4-yl)-N4-methyl-5-(trifluoromethyl) pyrimidine-2,4-diamine] it is 113 nM; for `CCNc1nc(Nc2cn(S(C)(=O)=O)nc2C)ncc1C(F)(F)F` [Example 160, N4-ethyl-N2-(3-methyl-1-(methylsulfonyl)-1H-pyrazol-4-yl)-5-(trifluoromethyl) pyrimidine-2,4-diamine] it is 0.3 nM. Same read-out and setting: the value for `CNc1nc(Nc2cn(C3CCN(CCOC)CC3)nc2C)ncc1C(F)(F)F` [Example 238, N2-(1-(1-(2-methoxyethyl)piperidin-4-yl)-3-methyl-1H-pyrazol-4-yl)-N4-methyl-5-(trifluoromethyl) pyrimidine-2,4-diamine] was 16 nM.

As for `CCNc1nc(Nc2cn(C(C)(C)c3nnc(C)o3)nc2C)ncc1C(F)(F)F` [Example 336, N4-ethyl-N2-(3-methyl-1-(2-(5-methyl-1,3,4-oxadiazol-2-yl)propan-2-yl)-1H-pyrazol-4-yl)-5-(trifluorometliyl) pyrimidine-2,4-diamine], the Ki is 1.2 nM. As for `CCNc1nc(Nc2cn(CC(C)(C)O)nc2C(C)(C)C)ncc1C(F)(F)F` [Example 201, 1-(3-tert-butyl-4-(4-(ethylamino)-5-(trifluoromethyl)pyrimidin-2-ylamino)-1H-pyrazol-1-yl)-2-methylpropan-2-ol], the Ki came to 420 nM.

One may read the Ki as the equilibrium dissociation constant of an inhibitor or competing ligand from its target.
